Laboratory results published in patent US11274099B2 (Superb Wisdom Limited, priority 2017, dated 2022).

Test: Pharmacokinetic analysis in male SD rats after IV bolus, plasma by LC-MS/MS
Assay type: in vivo
Details: rat, IV bolus 0.04 mg/kg; for Cmax / half-life: 3 rats per group; for half-life: read-out: T1/2, ± SD (converted); for MRT inf: read-out: MRT0-Inf (Mean Residence Time); for MRT last: read-out: MRT0-last (Mean Residence Time); for Vd: read-out: Vdss (apparent volume of distribution at equilibrium); for AUC(0-t): time zero to last measurable concentration; for AUC(0-inf): zero up to ∞
Method: Each of the tested compounds was administered as an IV bolus (3 rats per group) at a dose 0.04 mg/kg. Rats were fasted at least 12 hours prior to administration of test compound. […] Blood samples were processed for plasma and analyzed by LC-MS/MS for the following pharmacokinetic parameters: Cmax, T1/2, CL, Vdss, AUC0-last, AUC0-∞, MRT0-last, and MRT0-∞.

[2H]C([2H])([2H])C(O)(Cn1c(COCC)nc2c(N)nc3ccccc3c21)C([2H])([2H])[2H] [Compound 104, 2-((4-amino-2-(ethoxymethyl)-1H-imidazo[4,5-c]quinolin-1-yl)methyl)propan-1,1,1,3,3,3-d6-2-ol]
Cmax: 40.3 ± 10.7 ng/mL
half-life: 1.85 ± 1.05 h
MRT inf: 2.1 ± 0.663 h
MRT last: 1.5 ± 0.328 h
Vd: 2.62 ± 0.516 L/kg
AUC(0-t): 56.2 ± 6.51 ng·h/mL
AUC(0-inf): 60.4 ± 7.71 ng·h/mL

[2H]C([2H])([2H])C([2H])([2H])OCc1nc2c(N)nc3ccccc3c2n1CC(C)(C)O [Compound 107, 1-(4-amino-2-((ethoxy-d5)methyl)-1H-imidazo[4,5-c]quinolin-1-yl)-2-methylpropan-2-ol]
Cmax: 40.1 ± 8.82 ng/mL
half-life: 2.41 ± 1.71 h
MRT inf: 2.43 ± 0.735 h
MRT last: 1.66 ± 0.151 h
Vd: 3.23 ± 0.581 L/kg
AUC(0-t): 54.8 ± 6.02 ng·h/mL
AUC(0-inf): 59.4 ± 8.16 ng·h/mL

[2H]C([2H])([2H])C(O)(C([2H])([2H])[2H])C([2H])([2H])n1c(COCC)nc2c(N)nc3ccccc3c21 [Compound 113, 1-(4-amino-2-(ethoxymethyl)-1H-imidazo[4,5-c]quinolin-1-yl)-2-(methyl-d3)propan-1,1,3,3,3-d5-2-ol]
Cmax: 44.5 ± 14.2 ng/mL
half-life: 1.97 ± 1.76 h
MRT inf: 1.79 ± 0.884 h
MRT last: 1.26 h
Vd: 2.61 ± 0.732 L/kg
AUC(0-t): 49.3 ± 8.99 ng·h/mL
AUC(0-inf): 53 ± 11.2 ng·h/mL

CCOCc1nc2c(N)nc3ccccc3c2n1CC(C)(C)O [Resiquimod, 1-(4-Amino-2-(ethoxymethyl)-1H-imidazo[4,5-c]quinolin-1-yl)-2-methylpropan-2-ol, reference compound]
Cmax: 43.8 ± 10.9 ng/mL
half-life: 1.03 ± 1.72 h
MRT inf: 1.37 ± 0.139 h
MRT last: 1.09 ± 0.081 h
Vd: 2.46 ± 0.361 L/kg
AUC(0-t): 42.1 ± 6.04 ng·h/mL
AUC(0-inf): 45.9 ± 6.67 ng·h/mL
